# Literature values in US11066384B2, “Crystalline forms of ARN-509, preparation method and use thereof” (Crystal Pharmaceutical (Suzhou) Co., Ltd., priority 2018, dated 2021).
# Tests used:
# prostate cancer = settings: clinical trials; cited from earlier work
# [1] = low solubility and high permeability; cited from earlier work
Structure (SMILES),Share of patients in whom the drug is effective (prostate cancer),BCS class [1]
CNC(=O)c1ccc(N2C(=S)N(c3ccc(C#N)c(C(F)(F)F)c3)C(=O)C2(C)C)cc1F [Enzalutamide],about 70%,
"CNC(=O)c1ccc(N2C(=S)N(c3cnc(C#N)c(C(F)(F)F)c3)C(=O)C23CCC3)cc1F [ARN-509, 4-[7-(6-cyano-5-trifluoromethylpyridin-3-yl)-8-oxo-6-thioxo-5,7-diazaspiro[3.4]oct-5-yl]-2-fluoro-N-methylbenzamide]",,BCS II
